US7902179B2, “Heterocyclic compounds” (Ajinomoto Co., Inc., priority 2001, dated 2011)

Test system: TNF-α production from mouse peritoneal macrophage
Test: Inhibition of TNF-α production from mouse peritoneal macrophage (LPS stimulation, ELISA)
Assay type: cell-based
Conditions: ICR mouse peritoneal cells, GM-CSF and IFN-γ 10 ng/ml, LPS 5 ng/ml, cultured 16 hrs, 50% suppression of TNF-α amount, read-out: IC50 (μM) Mo-TNF
Description: Test for TNF-α Production or Inhibition of TNF-α Production from Mouse Peritoneal Macrophage Peritoneal cells were recovered from the peritoneal cavity of ICR mice (male, 5-7 weeks of age, Charles River) and sown in a 96-well half plate (Costar 3696) at a density of 1×10^5 cells per well. As the medium, RPMI-1640 containing 10% fetal calf serum was used and, using this medium, each reagent was prepared. Mouse GM-CSF (Peprotech) and mouse IFN-γ (Peprotech) were respectively added at a final concentration of 10 ng/ml, lipopolysaccharide (E. coli 0111: B4 LPS, DIFCO, lot 99078) was added at a final concentration of 5 ng/ml, and the compound of the present invention was added at 8 steps of dilution series by 3-fold dilution from the final concentration (300 μM), and cultured for 16 hrs. The concentration of TNF-α secreted into the culture supernatant was determined using a mouse TNF-α ELISA quantitative determination kit (Pharmingen, #2673KI) and the absorbance at 450 nm was measured using a V-max kinetic microplate reader (Molecular Devices). The concentration of the compound necessary for 50% suppression of TNF-α amount produced by lipopolysaccharide stimulation was taken as IC50 (μM).

Structure (SMILES)	IC50
Cc1ccc(-n2nc3c(c2N)C(=O)NC(=O)C3)cc1 [Example 5]	23.9 µM
Nc1c2c(nn1-c1cccc(F)c1)CC(=O)NC2=O [Example 9]	18 µM
Nc1c2c(nn1-c1ccc([N+](=O)[O-])cc1)CC(=O)NC2=O [Example 10]	22.9 µM
Nc1c2c(nn1-c1cccc(Cl)c1)CC(=O)NC2=O [Example 11]	15.2 µM
Nc1c2c(nn1-c1ccc(Cl)cc1)CC(=O)NC2=O [Example 12]	11.8 µM
Nc1c2c(nn1-c1ccccn1)CC(=O)NC2=O [Example 13]	5 µM
Cc1cccc(-n2nc3c(c2N)C(=O)NC(=O)C3)c1 [Example 14]	27.3 µM
COc1cccc(-n2nc3c(c2N)C(=O)NC(=O)C3)c1 [Example 16]	20.1 µM
Nc1c2c(nn1-c1c(Cl)cccc1Cl)CC(=O)NC2=O [Example 19]	32.8 µM
Nc1c2c(nn1-c1ccccc1)CC(=O)NC2=O [Example 21]	3.5 µM
O=C1Cc2nn(-c3ccccc3)cc2C(=O)N1 [Example 25]	28 µM
O=C1Cc2nn(-c3ccccc3)c(Br)c2C(=O)N1 [Example 26]	15.1 µM
O=C1Cc2nn(-c3ccccc3)c(I)c2C(=O)N1 [Example 27]	28.3 µM
O=C1Cc2nn(-c3ccccc3)c(Sc3ccccc3)c2C(=O)N1 [Example 33]	79.1 µM
COC(=O)CCn1nc2c(c1N)C(=O)NC(=O)C2 [Example 36]	80.5 µM
Nc1c2c(nn1-c1ccccc1)/C(=C\c1ccc(O)cc1)C(=O)NC2=O [Example 46]	23.7 µM
Cc1ccccc1/C=C1/C(=O)NC(=O)c2c1nn(-c1ccccc1)c2N [Example 49]	32.7 µM
CC(C)c1ccc(/C=C2/C(=O)NC(=O)c3c2nn(-c2ccccc2)c3N)cc1 [Example 52]	8.6 µM
CC(=O)Nc1ccc(/C=C2/C(=O)NC(=O)c3c2nn(-c2ccccc2)c3N)cc1 [Example 53]	7.9 µM
Nc1ccc(/C=C2/C(=O)NC(=O)c3c2nn(-c2ccccc2)c3N)cc1 [Example 55]	6.1 µM
Nc1c2c(nn1-c1ccccc1)/C(=C\c1ccc(O)c(O)c1)C(=O)NC2=O [Example 56]	3.3 µM

Structure (SMILES)	IC50
Nc1c2c(nn1-c1ccccc1)/C(=C\c1cccc(O)c1)C(=O)NC2=O [Example 57]	7.8 µM
Nc1c2c(nn1-c1ccccc1)/C(=C\c1ccc(C(=O)O)cc1)C(=O)NC2=O [Example 60]	3.7 µM
Cn1ccnc1/C=C1/C(=O)NC(=O)c2c1nn(-c1ccccc1)c2N [Example 64]	3.5 µM
Nc1c2c(nn1-c1ccccc1)/C(=C\C1=COc3ccc(O)cc3C1)C(=O)NC2=O [Example 66]	3.5 µM
COc1ccccc1/C=C1/C(=O)NC(=O)c2c1nn(-c1ccccc1)c2N [Example 71]	4.5 µM
COc1cccc(/C=C2/C(=O)NC(=O)c3c2nn(-c2ccccc2)c3N)c1 [Example 72]	80.5 µM
COc1cccc(OC)c1/C=C1/C(=O)NC(=O)c2c1nn(-c1ccccc1)c2N [Example 73]	5.6 µM
COc1cc(OC)c(/C=C2/C(=O)NC(=O)c3c2nn(-c2ccccc2)c3N)c(OC)c1 [Example 74]	4.4 µM
CCC/C=C1/C(=O)NC(=O)c2c1nn(-c1ccccc1)c2N [Example 77]	14.7 µM
CSCC/C=C1/C(=O)NC(=O)c2c1nn(-c1ccccc1)c2N [Example 78]	10.6 µM
Nc1c2c(nn1-c1ccccc1)/C(=C\c1cccs1)C(=O)NC2=O [Example 82]	78.5 µM
Nc1c2c(nn1-c1ccccc1)/C(=C\c1ccco1)C(=O)NC2=O [Example 83]	93.2 µM
C/C=C1/C(=O)NC(=O)c2c1nn(-c1ccccc1)c2N [Example 86]	9.7 µM
CC/C(C)=C1/C(=O)NC(=O)c2c1nn(-c1ccccc1)c2N [Example 88]	9.9 µM
Nc1c2c(nn1-c1ccccc1)C(=C1CCOCC1)C(=O)NC2=O [Example 92]	31.9 µM
Nc1c2c(nn1-c1ccccc1)C1(CC1)C(=O)NC2=O [Example 98]	18.4 µM
Cn1nc2c(c1NCc1cccc(O)c1)C(=O)NC(=O)C2 [Example 112]	82.2 µM
Nc1c2c(nn1-c1ccc(F)cc1)CC(=O)NC2=O [Example 124]	9.4 µM
Nc1c2c(nn1-c1c(F)c(F)c(F)c(F)c1F)CC(=O)NC2=O [Example 125]	10.8 µM
CCOC(=O)Nc1cccc(-n2nc3c(c2N)C(=O)NC(=O)C3)c1 [Example 129]	8.4 µM
Nc1c2c(nn1-c1ccccc1)/C(=C\c1c(F)c(F)c(F)c(F)c1F)C(=O)NC2=O [Example 133]	0.3 µM

Structure (SMILES)	IC50
CC(C)=C1C(=O)NC(=O)c2c1nn(-c1ccccc1)c2N [Example 135]	8.3 µM
CCOC(=O)/C(C)=C1\C(=O)NC(=O)c2c1nn(-c1ccccc1)c2N [Example 136]	4.3 µM
CO/N=C1/C(=O)NC(=O)c2c1nn(-c1ccccc1)c2N [Example 143]	26.2 µM
CCOC(=O)C(C)C1C(=O)NC(=O)c2c1nn(-c1ccccc1)c2N (centres unmarked) [Example 149]	99.7 µM
Nc1c2c(nn1-c1ccccc1O)CC(=O)NC2=O [Example 153]	9 µM
CCC(CC)n1nc2c(c1N)C(=O)NC(=O)C2 [Example 158]	5.8 µM
Nc1c2c(nn1C1CCOCC1)CC(=O)NC2=O [Example 159]	26.9 µM
Nc1c2c(nn1CC1CCCCC1)CC(=O)NC2=O [Example 160]	60.3 µM
Nc1c2c(nn1C1CCCC1)CC(=O)NC2=O [Example 161]	10.9 µM
CCCC(CCC)n1nc2c(c1N)C(=O)NC(=O)C2 [Example 162]	13 µM
CC1(C)CCC(n2nc3c(c2N)C(=O)NC(=O)C3)CC1 [Example 163]	2.6 µM
CCCCCCn1nc2c(c1N)C(=O)NC(=O)C2 [Example 164]	2.1 µM
CCC(CC)Cn1nc2c(c1N)C(=O)NC(=O)C2 [Example 167]	26.8 µM
Nc1c2c(nn1Cc1ccccc1O)CC(=O)NC2=O [Example 170]	13.2 µM
Nc1c2c(nn1Cc1cccc3ccccc13)CC(=O)NC2=O [Example 172]	83.1 µM
Nc1c2c(nn1Cc1cccnc1)CC(=O)NC2=O [Example 176]	3.5 µM
Nc1c2c(nn1Cc1ccccc1I)CC(=O)NC2=O [Example 180]	8.7 µM
O=C1Cc2nn(-c3ccccc3)c(N3CCCC3)c2C(=O)N1 [Example 186]	14.7 µM
O=C1Cc2nn(-c3ccccc3)c(NC3CCCCC3)c2C(=O)N1 [Example 187]	16.6 µM
O=C1Cc2nn(-c3ccccc3)c(-c3ccncc3)c2C(=O)N1 [Example 190]	77.3 µM
